The text below walks through data of patent US20220288110A1, “DRUG TREATMENT AND BIOMARKER PANEL TARGETED TO DISEASES DUE TO MULT[…] OF […]” (priority 2021, published 2022).

“And” between values parts separate entries of the source, which are not always exact repeats. Identical values can stand only once.

This experiment concerns Severe Acute Respiratory Syndrome-Associated Coronavirus (SARS-CoV-1) Urbani strain. The arrangement: species or system BALB/C mice. The note with it: in vivo.

Consider polyinosinic: polycytidylic acid, for which the “relative efficacy in reducing viral load in mouse lung (in words)” value is “lower viral titers at the 3-day mark”. Moreover, under “mouse”, the “order of efficacy by percent reduction in viral load” value is “H>G>F>A>D>B=C>I>J>E” and the “virtual linear slope of viral reduction beyond 5 days post exposure: day mark at which it converged” value stood at 7 days. Where the note is “mouse, ip, 10 mg/kg/day”, the Lung virus titer is 7.2 CC ID/50 (Log 10) and 7.0 CC ID/50 (Log 10) and 6.5 CC ID/50 (Log 10) and 6.0 CC ID/50 (Log 10) and 6.2 CC ID/50 (Log 10); the “percent reduction in viral load” value came out at 11.8%.
